Experimental data taken from patent US11827628B2, “Compositions and methods for inhibition of the JAK pathway” (Rigel Pharmaceuticals, Inc., priority 2005, dated 2023).

Experiments:
[1] = test system: up-regulation of ICAM-1 (CD54) by IFNγ in U937 human monocytic cells; assay: U937 IFNγ ICAM1 FACS Assay; type: cell-based; conditions: U937 cells stimulated with IFNγ; ICAM-1 expression by FACS; read-out: IC50, Example 44
Summary of the method: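 U937 cells in 10% FCS RPMI were preincubated 30 min at 37 °C with an 8-point, 3-fold compound dilution series in duplicate, then stimulated with IFNγ for 18–24 h. Surface ICAM-1 was stained with APC anti-ICAM-1 and read by flow cytometry as geometric mean on live-gated cells. EC50 was derived.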

[2] = test system: IL-4 stimulated expression of CD23 in human Ramos B cells (JAK-1 and JAK-3); assay: Assay for Ramos B-Cell Line Stimulated with IL-4 (CD23 upregulation, FACS); type: cell-based; conditions: Ramos B-cell line stimulated with IL-4; CD23 expression by FACS; read-out: IC50, Example 41
Summary of the method: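 Compound effect on IL-4-driven JAK1/JAK3 signalling is gauged as CD23 surface expression, measured by FACS after 20-24 h of stimulation with IL-4 at 50 units/mL final. A 1 h compound pre-treatment at 37 °C precedes stimulation, and IC50 is derived from the results.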

Row | SMILES | IC50 [1] | IC50 [2]
1 | N#CCCc1ccc(Nc2nc(Nc3ccc(F)c(S(N)(=O)=O)c3)ncc2F)cc1 [III-16, N2-(3-Aminosulfonyl-4-fluorophenyl)-N4-[4-(cyanoethylene)phenyl]-5-fluoro-2,4-pyrimidinediamine] | 1800 nM | 273 nM
2 | Cc1nnc(COc2ccc(Nc3nc(Nc4cccc(S(N)(=O)=O)c4)ncc3F)cc2)o1 [Compound I-277, N2-(3-aminosulfonylphenyl)-5-fluoro-N4-[4-(5-methyl-1,3,4-oxadiazol-2-yl)methyleneoxyphenyl]-2,4-pyrimidinediamine] | 1470 nM | 151 nM
3 | Cc1nc(COc2ccc(Nc3nc(Nc4ccc(S(N)(=O)=O)cc4)ncc3F)cc2)no1 [Compound I-275, N2-(4-Aminosulfonyl)phenyl-5-fluoro-N4-[4-(5-methyl-1,2,4-oxadiazol-3-yl)methoxy]phenyl-2,4-pyrimidinediamine] | 1900 nM | 223 nM
4 | CCN(CC)CCNS(=O)(=O)c1ccc(Nc2ncc(F)c(Nc3ccc(OCc4cc(C)on4)c(C)c3)n2)cc1 [Compound I-245, N2-[4-(2-N,N-Diethylaminoethyl)aminosulfonylphenyl)-5-fluoro-N4-[3-methyl-4-(5-methylisoxazol-3-yl)methyleneoxyphenyl]-2,4-pyrimidinediamine] | 4190 nM | 202 nM
5 | CNS(=O)(=O)c1cc(Nc2ncc(F)c(Nc3ccc(CC#N)cc3)n2)ccc1C [III-1, 5-Fluoro-N2-[3-(N-methylaminosulfony)-4-methylphenyl]-5-fluoro-N4-(4-cyanomethylphenyl)-2,4-pyrimidinediamine] | 1120 nM | 151 nM
6 | CCN(CC)CCNS(=O)(=O)c1ccc(Nc2ncc(F)c(Nc3ccc(OCc4csc(C)n4)cc3)n2)cc1 [Compound I-284, N2-[4-(2-N,N-Diethylaminoethyl)aminosulfonylphenyl)-5-fluoro-N4-[4-(2-methylthizol-4-yl)methyleneoxyphenyl]-2,4-pyrimidinediamine] | 1550 nM | 136 nM
7 | Cc1nc(COc2ccc(Nc3nc(Nc4ccc(C)c(S(N)(=O)=O)c4)ncc3F)cc2)cs1 [Compound I-280, N2-(3-Aminosulfonyl-4-methylphenyl)-5-fluoro-N4-[4-(2-methylthiazol-4-yl)methyleneoxyphenyl]-2,4-pyrimidinediamine] | 1460 nM | 145 nM
8 | Cc1ccc(Nc2ncc(F)c(Nc3ccc(OC4CCCN(C)C4)cc3)n2)cc1S(N)(=O)=O (racemic) [II-4, Racemic N2-(3-aminosulfonyl-4-methylphenyl)-5-fluoro-N4-{4-[(1-methylpiperidin-3-yl)oxy]phenyl}-2,4-pyrimidinediamine] | 3510 nM | 316 nM
9 | CCN(CC)CCNS(=O)(=O)c1cccc(Nc2ncc(F)c(Nc3ccc(OCc4cc(C)on4)c(C)c3)n2)c1 [Compound I-244, N2-[3-(2-N,N-Diethylaminoethyl)aminosulfonylphenyl)-5-fluoro-N4-[3-methyl-4-(5-methylisoxazol-3-yl)methyleneoxyphenyl]-2,4-pyrimidinediamine] | 3120 nM | 285 nM
10 | Cc1ccc(Nc2ncc(F)c(Nc3ccc(OC4CCN(C)C4)cc3)n2)cc1S(N)(=O)=O (stereo not shown) [II-10, N2-(3-Aminosulfonyl-4-methylphenyl)-5-fluoro-N4-(N-methylpyrrolidin-3-yloxyphenyl)-2,4-pyrimidinediamine] | 1400 nM | 369 nM
11 | CCN(CC)CCNS(=O)(=O)c1ccc(Nc2ncc(F)c(Nc3ccc(CC#N)cc3)n2)cc1 [III-2, N2-[4-(2-N,N-Diethylaminoethyl)aminosulfonylphenyl)-5-fluoro-N4-(4-cyanomethylphenyl)-2,4-pyrimidinediamine] | 6720 nM | 224 nM
12 | Cc1cc(COc2ccc(Nc3nc(Nc4cccc(S(=O)(=O)N(Cc5oc(=O)oc5C)Cc5oc(=O)oc5C)c4)ncc3F)cc2)no1 [Compound I-248, N2-{3-[N-N-Di-[(5-Methyl-1,3-dioxolene-2-one-4-yl)methylene]]aminosulfonylphenyl}-5-fluoro-N4-[4-(5-methylisoxazol-3-yl)methyleneoxyphenyl]-2,4-pyrimidinediamine] | 2660 nM | 388 nM
13 | Cc1cc(COc2ccc(Nc3nc(Nc4cccc(S(N)(=O)=O)c4)ncc3F)cc2C)no1 [Compound I-238, N2-(3-Aminosulfonylphenyl)-5-fluoro-N4-[3-methyl-4-(5-methylisoxazol-3-yl)methyleneoxyphenyl]-2,4-pyrimidinediamine] | 1130 nM | 165 nM

Further compounds by falling IC50 [2], results first:

Row | IC50 [1] | IC50 [2] | SMILES
14 | 1480 nM | 133 nM | Cc1nc(COc2ccc(Nc3nc(Nc4ccc(S(N)(=O)=O)cc4)ncc3F)cc2)cs1 [Compound I-285, N2-(4-Aminosulfonylphenyl)-5-fluoro-N4-[4-(2-methylthiazol-4-yl)methyleneoxyphenyl]-2,4-pyrimidinediamine]
15 | 873 nM | 106 nM | CCN(CC)CCNS(=O)(=O)c1ccc(Nc2ncc(F)c(Nc3ccc(OCc4cc(C)on4)cc3)n2)cc1 [Compound I-246, N2-[4-(2-N,N-Diethylaminoethyl)aminosulfonylphenyl)-5-fluoro-N4-[4-(5-methylisoxazol-3-yl)methyleneoxyphenyl]-2,4-pyrimidinediamine]
16 | 2020 nM | 102 nM | Cc1cc(COc2ccc(Nc3nc(Nc4ccc(C)c(S(N)(=O)=O)c4)ncc3F)cc2C)no1 [Compound I-234, N2-(3-Aminosulfonyl-4-methylphenyl)-5-fluoro-N4-[3-methyl-4-(5-methylisoxazol-3-yl)methyleneoxyphenyl]-2,4-pyrimidinediamine]
17 | 822 nM | 93 nM | N#CCOc1ccc(Nc2nc(Nc3ccc(Cl)c(S(N)(=O)=O)c3)ncc2F)cc1 [Compound I-21, N2-(3-Aminosulfonyl-4-chlorophenyl)-N4-(4-cyanomethoxy)phenyl-5-fluoro-2,4-pyrimidinediamine]
18 | 2470 nM | 90.6 nM | Cc1noc(COc2cccc(Nc3nc(Nc4cccc(S(N)(=O)=O)c4)ncc3F)c2)n1 [Compound I-252, N2-(3-Aminosulfonylphenyl)-5-fluoro-N4-[3-(3-methyl-1,2,4-oxadiazol-5-yl)methyleneoxyphenyl]-2,4-pyrimidinediamine]
19 | 1210 nM | 88 nM | Cc1cc(COc2ccc(Nc3nc(Nc4cc(Cl)c(C)c(S(N)(=O)=O)c4)ncc3F)cc2F)no1 [Compound I-223, N2-(3-Aminosulfonyl-5-chloro-4-methylphenyl)-5-fluoro-N4-[3-fluoro-4-(5-methylisoxazol-3-yl)methyleneoxyphenyl]-2,4-pyrimidinediamine]
20 | 434 nM | 72.6 nM | Cc1cc(COc2ccc(Nc3nc(Nc4cc(C)c(Cl)c(S(N)(=O)=O)c4)ncc3F)cc2)no1 [Compound I-218, N2-(3-Aminosulfonyl-4-chloro-5-methylphenyl)-5-fluoro-N4-[4-(5-methylisoxazol-3-yl)methyleneoxyphenyl]-2,4-pyrimidinediamine]
21 | 1890 nM | 64.5 nM | COc1cc(Nc2ncc(F)c(Nc3ccc(OCC#N)cc3)n2)ccc1S(N)(=O)=O [Compound I-28, N2-(4-Aminosulfonyl-3-methoxyphenyl)-N4-(4-cyanomethoxy)phenyl-5-fluoro-2,4-pyrimidinediamine]
22 | 534 nM | 61.9 nM | Cc1ccc(Nc2ncc(F)c(Nc3cc(C)c(OCC#N)c(C)c3)n2)cc1S(N)(=O)=O [Compound I-27, N2-(3-Aminosulfonyl-4-methyl)phenyl-N4-(4-cyanomethoxy-3,5-dimethyl)phenyl-5-fluoro-2,4-pyrimidinediamine]
23 | – | 55.8 nM | Cc1cc(Nc2nc(Nc3ccc(S(N)(=O)=O)cc3)ncc2F)cc(C)c1OCC#N [Compound I-25, N2-(4-Aminosulfonyl)phenyl-N4-(4-cyanomethoxy-3,5-dimethyl)phenyl-5-fluoro-2,4-pyrimidinediamine]
24 | 365 nM | 48.7 nM | N#CCOc1ccc(Nc2nc(Nc3cccc(S(N)(=O)=O)c3)ncc2F)cc1 [Compound I-17, N2-(3-Aminosulfonyl)phenyl-N4-(4-cyanomethoxy)phenyl-5-fluoro-2,4-pyrimidinediamine]
25 | 415 nM | 42.3 nM | Cc1noc(COc2ccc(Nc3nc(Nc4cc(C)c(Cl)c(S(N)(=O)=O)c4)ncc3F)cc2)n1 [Compound I-265, N2-(3-Aminosulfonyl-4-chloro-5-methylphenyl)-5-fluoro-N4-[4-(3-methyl-1,2,4-oxadiazol-5-yl)methyleneoxyphenyl]-2,4-pyrimidinediamine]
26 | 840 nM | 33.1 nM | Cc1cc(COc2ccc(Nc3nc(Nc4ccc(C)c(S(N)(=O)=O)c4)ncc3F)cc2F)no1 [Compound I-222, N2-(3-Aminosulfonyl-4-methylphenyl)-5-fluoro-N4-[3-fluoro-4-(5-methylisoxazol-3-yl)methyleneoxyphenyl]-2,4-pyrimidinediamine]
27 | 455 nM | 30.1 nM | Cc1cc(Nc2nc(Nc3cccc(S(N)(=O)=O)c3)ncc2F)ccc1OCC#N [Compound I-23, N2-(3-Aminosulfonyl)phenyl-N4-(4-cyanomethoxy-3-methyl)phenyl-5-fluoro-2,4-pyrimidinediamine]
28 | 315 nM | 27.9 nM | Cc1noc(COc2ccc(Nc3nc(Nc4ccc(C)c(S(N)(=O)=O)c4)ncc3F)cc2)n1 [Compound I-259, N2-(3-Aminosulfonyl-4-methylphenyl)-5-fluoro-N4-[4-(3-methyl-1,2,4-oxadiazol-5-yl)methyleneoxyphenyl]-2,4-pyrimidinediamine]
